From US5395847A, “Imidazolyl-alkenoic acids” (SmithKline Beecham Corporation, priority 1994, dated 1995)

Columns and labels:
[1] = test system: pressor response to angiotensin II; experiment: Inhibition of pressor response to angiotensin II in conscious rats; assay type: in vivo; conditions: Rattus norvegicus, po, orally, change in mean arterial pressure in response to intravenous angiotensin II, read-out: IC50 (dose of compound needed to produce 50% inhibition of the control response to angiotensin II)
Description: Rats are prepared with indwelling femoral arterial and venous catheters and a stomach tube (Gellai et al., Kidney Int. 15:419, 1979). Two to three days following surgery the rats are placed in a restrainer and blood pressure is continuously monitored from the arterial catheter with a pressure transducer and recorded on a polygraph. The change in mean arterial pressure in response to intravenous injections of […] angiotensin II is compared at various time points prior to and following the administration of the compounds intravenously or orally at doses of 0.1 to 300 mg/k g. The dose of compound needed to produce 50% inhibition of the control response to angiotensin II (IC50) is used to estimate the potency of the compounds.

[2] = target: T1, human AT-1 receptors (Homo sapiens, UniProt P30556); experiment: Radioligand binding assay, 125I-angiotensin II displacement; conditions: human AT-1 receptors expressed in mouse cell line L h AT-1-D6; 80 pM 125I-angiotensin II; 1 hour at 25° C.; read-out: IC50 (concentration of antagonist needed to displace 50% of the total specifically bound angiotensin II)
T1 construct: expressed in transfected cells
T1 sequence (P30556 1-359): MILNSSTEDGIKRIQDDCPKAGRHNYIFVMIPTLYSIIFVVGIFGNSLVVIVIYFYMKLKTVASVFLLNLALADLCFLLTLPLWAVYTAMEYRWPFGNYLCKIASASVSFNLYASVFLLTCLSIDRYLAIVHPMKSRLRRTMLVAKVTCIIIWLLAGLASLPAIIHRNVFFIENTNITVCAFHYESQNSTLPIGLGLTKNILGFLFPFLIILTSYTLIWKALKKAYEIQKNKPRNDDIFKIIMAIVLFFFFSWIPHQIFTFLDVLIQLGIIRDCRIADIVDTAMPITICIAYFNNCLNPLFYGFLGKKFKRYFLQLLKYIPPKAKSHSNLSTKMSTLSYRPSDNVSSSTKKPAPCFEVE
Description: The radioligand binding assay is a modification of a method previously described in detail (Gunther et al., Circ. Res. 47:278, 1980). A stable clone of human AT-1 receptors expressed in the mouse cell line L h AT-1-D6 is used. Cells are incubated in Tris buffer with 80 pM of 125I-angiotensin II with or without angiotensin II antagonists for 1 hour at 25° C. The incubation is terminated by rapid filtration and receptor bound ^125 I-angiotensin II trapped on the filter is quantitated with a gamma counter. The potency of angiotensin II antagonists is expressed as the IC50 which is the concentration of antagonist needed to displace 50% of the total specifically bound angiotensin II.

IC50 [2]: 342 nM
Structure (SMILES): Br.CCCCc1ncc(/C=C(\Cc2cccs2)C(=O)Oc2ccc3c(c2)CCC3)n1Cc1ccc(C(=O)O)c2ccccc12 [Example 1, E-α-[[2-n-butyl-1-[(4-carboxy-1-naphthaleneyl)methyl]-1H-imidazol-5-yl]methylene]-2-thiophenepropanoic Acid Indan-5-yl Ester, Hydrobromide]
ED50 [1]: 0.053 mg/kg
